The supplement of paper PMC4862054

How the values were obtained:
Details in all cases: incubation time: 72 h
BT-474 [1] = experiment: normalised viability (% of control), CellTiter-Blue; higher = more viable cells (about 100 = DMSO control)
Outline: (§1)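 384-well plates were pre-loaded with compound in 5 µl medium before 20 µl of breast cancer cell suspension was seeded. Following 72 h incubation, 2.5 µl CellTiter-Blue reagent was added for 2 h at 37 °C. Fluorescence was read at 560/590 nm and plates were normalised to vehicle (100) and a positive kill control (0), checked by Z'-factor. Normalised viability is reported at a single listed concentration of the series.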

CAL-120 [2] = experiment: as above
Outline: as §1

CAL-148 = experiment: as above
Outline: as §1

CAL-51 [3] = experiment: as above
Outline: as §1

CAL-85-1 [4] = experiment: as above
Outline: as §1

HCC1143 = experiment: as above
Outline: as §1

HCC1599 [5] = experiment: as above
Outline: as §1

HCC1937 = experiment: as above
Outline: as §1

HDQ-P1 [6] = experiment: as above
Outline: as §1

Hs578T [7] = experiment: as above
Outline: as §1

MDA-MB-231 [8] = experiment: as above
Outline: as §1

MDA-MB-468 = experiment: as above
Outline: as §1

MFM-223 = experiment: as above
Outline: as §1

SK-BR-3 [9] = experiment: as above
Outline: as §1

BT-474 [10] = experiment: drug sensitivity score (DSS), CellTiter-Glo (DSS (AUC-based score)); higher = stronger drug effect (viability inhibition or cytotoxicity); extreme values may be limits of the assay
Outline: (§2)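 Breast cancer cell lines (20 µl suspension) were seeded into 384-well plates holding compound at 5 concentrations in 10-fold steps over a compound-specific 10,000-fold range, then incubated 72 h. CellTox Green fluorescence (485/520 nm) was read first, then CellTiter-Glo luminescence after 10 min at room temperature. Each plate was normalised to 0.1 % DMSO and a positive kill control. The drug sensitivity score was calculated from the area under the fitted dose-response curve.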

CAL-120 [11] = experiment: as above
Outline: as §2

CAL-51 [12] = experiment: as above
Outline: as §2

CAL-85-1 [13] = experiment: as above
Outline: as §2

DU-4475 = experiment: as above
Outline: as §2

HCC1599 [14] = experiment: as above
Outline: as §2

HDQ-P1 [15] = experiment: as above
Outline: as §2

Hs578T [16] = experiment: as above
Outline: as §2

MDA-MB-231 [17] = experiment: as above
Outline: as §2

SK-BR-3 [18] = experiment: as above
Outline: as §2

## CN(N=O)C(=O)N[C@@H](C=O)[C@@H](O)[C@H](O)[C@H](O)CO [Streptozocin]
BT-474 [1]; 10 nM
  normalised viability: 125%
BT-474 [1]; 1000 nM
  normalised viability: 98.6%
BT-474 [1]; 10000 nM
  normalised viability: 135%
CAL-120 [2]; 10 nM
  normalised viability: 106%
CAL-120 [2]; 1000 nM
  normalised viability: 101%
CAL-120 [2]; 10000 nM
  normalised viability: 113%
CAL-148; 3 nM
  normalised viability: 98.6%
CAL-148; 30 nM
  normalised viability: 97.3%
CAL-148; 100 nM
  normalised viability: 99.3%
CAL-51 [3]; 3 nM
  normalised viability: 115%
CAL-51 [3]; 30 nM
  normalised viability: 112%
CAL-51 [3]; 100 nM
  normalised viability: 107%
CAL-85-1 [4]; 3 nM
  normalised viability: 95.7%
CAL-85-1 [4]; 30 nM
  normalised viability: 92.1%
CAL-85-1 [4]; 100 nM
  normalised viability: 95.4%
HCC1143; 10 nM
  normalised viability: 87.5%
HCC1143; 1000 nM
  normalised viability: 97.4%
HCC1143; 10000 nM
  normalised viability: 92.5%
HCC1599 [5]; 10 nM
  normalised viability: 104%
HCC1599 [5]; 1000 nM
  normalised viability: 85.9%
HCC1599 [5]; 10000 nM
  normalised viability: 113%
HCC1937; 10 nM
  normalised viability: 87.4%
HCC1937; 1000 nM
  normalised viability: 63.3%
HCC1937; 10000 nM
  normalised viability: 75.9%
HDQ-P1 [6]; 3 nM
  normalised viability: 103%
HDQ-P1 [6]; 30 nM
  normalised viability: 109%
HDQ-P1 [6]; 100 nM
  normalised viability: 111%
Hs578T [7]; 10 nM
  normalised viability: 110%
Hs578T [7]; 1000 nM
  normalised viability: 103%
Hs578T [7]; 10000 nM
  normalised viability: 101%
MDA-MB-231 [8]; 10 nM
  normalised viability: 101%
MDA-MB-231 [8]; 1000 nM
  normalised viability: 138%
MDA-MB-231 [8]; 10000 nM
  normalised viability: 110%
MDA-MB-468; 10 nM
  normalised viability: 107%
MDA-MB-468; 1000 nM
  normalised viability: 105%
MDA-MB-468; 10000 nM
  normalised viability: 113%
MFM-223; 10 nM
  normalised viability: 93.1%
MFM-223; 1000 nM
  normalised viability: 93%
MFM-223; 10000 nM
  normalised viability: 86.8%
SK-BR-3 [9]; 10 nM
  normalised viability: 101%
SK-BR-3 [9]; 1000 nM
  normalised viability: 110%
SK-BR-3 [9]; 10000 nM
  normalised viability: 126%
BT-474 [10]
  drug sensitivity score: 0
CAL-120 [11]
  drug sensitivity score: 0
CAL-51 [12]
  drug sensitivity score: 0
CAL-85-1 [13]
  drug sensitivity score: 0
DU-4475
  drug sensitivity score: 0
HCC1599 [14]
  drug sensitivity score: 0
HDQ-P1 [15]
  drug sensitivity score: 0
Hs578T [16]
  drug sensitivity score: 0
MDA-MB-231 [17]
  drug sensitivity score: 0
SK-BR-3 [18]
  drug sensitivity score: 0

## Cc1ccc(C(=O)N(CCCN)[C@@H](c2oc3cc(Cl)ccc3c(=O)c2Cc2ccccc2)C(C)C)cc1
BT-474 [1]; 1 nM
  normalised viability: 117%
BT-474 [1]; 100 nM
  normalised viability: 27.5%
BT-474 [1]; 1000 nM
  normalised viability: 28.7%
CAL-120 [2]; 1 nM
  normalised viability: 53%
CAL-120 [2]; 100 nM
  normalised viability: 27.8%
CAL-120 [2]; 1000 nM
  normalised viability: 26.7%
CAL-148; 0.3 nM
  normalised viability: 93%
CAL-148; 3 nM
  normalised viability: 106%
CAL-148; 10 nM
  normalised viability: 16.1%
CAL-51 [3]; 0.3 nM
  normalised viability: 106%
CAL-51 [3]; 3 nM
  normalised viability: 101%
CAL-51 [3]; 10 nM
  normalised viability: 38.6%
CAL-85-1 [4]; 0.3 nM
  normalised viability: 92.9%
CAL-85-1 [4]; 3 nM
  normalised viability: 90.1%
CAL-85-1 [4]; 10 nM
  normalised viability: 33%
HCC1143; 1 nM
  normalised viability: 83.7%
HCC1143; 100 nM
  normalised viability: 43.2%
HCC1143; 1000 nM
  normalised viability: 37.5%
HCC1599 [5]; 1 nM
  normalised viability: 97.2%
HCC1599 [5]; 100 nM
  normalised viability: 94.1%
HCC1599 [5]; 1000 nM
  normalised viability: 81.7%
HCC1937; 1 nM
  normalised viability: 51.2%
HCC1937; 100 nM
  normalised viability: 26.6%
HCC1937; 1000 nM
  normalised viability: 22.3%
HDQ-P1 [6]; 0.3 nM
  normalised viability: 128%
HDQ-P1 [6]; 3 nM
  normalised viability: 75.8%
HDQ-P1 [6]; 10 nM
  normalised viability: 59.1%
Hs578T [7]; 1 nM
  normalised viability: 102%
Hs578T [7]; 100 nM
  normalised viability: 13.6%
Hs578T [7]; 1000 nM
  normalised viability: 13.6%
MDA-MB-231 [8]; 1 nM
  normalised viability: 37.1%
MDA-MB-231 [8]; 100 nM
  normalised viability: 25.8%
MDA-MB-231 [8]; 1000 nM
  normalised viability: 24.2%
MDA-MB-468; 1 nM
  normalised viability: 88.4%
MDA-MB-468; 100 nM
  normalised viability: 26.5%
MDA-MB-468; 1000 nM
  normalised viability: 36.3%
MFM-223; 1 nM
  normalised viability: 105%
MFM-223; 100 nM
  normalised viability: 43.4%
MFM-223; 1000 nM
  normalised viability: 40.6%
SK-BR-3 [9]; 1 nM
  normalised viability: 45%
SK-BR-3 [9]; 100 nM
  normalised viability: 20.8%
SK-BR-3 [9]; 1000 nM
  normalised viability: 18.2%
BT-474 [10]
  drug sensitivity score: 0
CAL-120 [11]
  drug sensitivity score: 0
CAL-51 [12]
  drug sensitivity score: 9.66
CAL-85-1 [13]
  drug sensitivity score: 0
DU-4475
  drug sensitivity score: 0
HCC1599 [14]
  drug sensitivity score: 0
HDQ-P1 [15]
  drug sensitivity score: 0
Hs578T [16]
  drug sensitivity score: 0
MDA-MB-231 [17]
  drug sensitivity score: 0
SK-BR-3 [18]
  drug sensitivity score: 0

## Cn1c(Nc2ccc(C(F)(F)F)cc2)nc2cc(Oc3ccnc(-c4ncc(C(F)(F)F)[nH]4)c3)ccc21 [RAF265]
BT-474 [1]; 1 nM
  normalised viability: 118%
BT-474 [1]; 100 nM
  normalised viability: 107%
BT-474 [1]; 1000 nM
  normalised viability: 96.4%
CAL-120 [2]; 1 nM
  normalised viability: 88.5%
CAL-120 [2]; 100 nM
  normalised viability: 64.5%
CAL-120 [2]; 1000 nM
  normalised viability: 51.3%
CAL-148; 0.3 nM
  normalised viability: 89.4%
CAL-148; 3 nM
  normalised viability: 87.1%
CAL-148; 10 nM
  normalised viability: 89.2%
CAL-51 [3]; 0.3 nM
  normalised viability: 91.4%
CAL-51 [3]; 3 nM
  normalised viability: 94.2%
CAL-51 [3]; 10 nM
  normalised viability: 99.1%
CAL-85-1 [4]; 0.3 nM
  normalised viability: 87.4%
CAL-85-1 [4]; 3 nM
  normalised viability: 83.3%
CAL-85-1 [4]; 10 nM
  normalised viability: 89.8%
HCC1143; 1 nM
  normalised viability: 90.1%
HCC1143; 100 nM
  normalised viability: 78%
HCC1143; 1000 nM
  normalised viability: 72.5%
HCC1599 [5]; 1 nM
  normalised viability: 104%
HCC1599 [5]; 100 nM
  normalised viability: 106%
HCC1599 [5]; 1000 nM
  normalised viability: 106%
HCC1937; 1 nM
  normalised viability: 103%
HCC1937; 100 nM
  normalised viability: 78.7%
HCC1937; 1000 nM
  normalised viability: 62%
HDQ-P1 [6]; 0.3 nM
  normalised viability: 95.3%
HDQ-P1 [6]; 3 nM
  normalised viability: 94.6%
HDQ-P1 [6]; 10 nM
  normalised viability: 79.7%
Hs578T [7]; 1 nM
  normalised viability: 97.8%
Hs578T [7]; 100 nM
  normalised viability: 90.9%
Hs578T [7]; 1000 nM
  normalised viability: 78.3%
MDA-MB-231 [8]; 1 nM
  normalised viability: 110%
MDA-MB-231 [8]; 100 nM
  normalised viability: 86.1%
MDA-MB-231 [8]; 1000 nM
  normalised viability: 53.8%
MDA-MB-468; 1 nM
  normalised viability: 110%
MDA-MB-468; 100 nM
  normalised viability: 94.2%
MDA-MB-468; 1000 nM
  normalised viability: 80.1%
MFM-223; 1 nM
  normalised viability: 94.9%
MFM-223; 100 nM
  normalised viability: 74.7%
MFM-223; 1000 nM
  normalised viability: 43.8%
SK-BR-3 [9]; 1 nM
  normalised viability: 96.2%
SK-BR-3 [9]; 100 nM
  normalised viability: 96.3%
SK-BR-3 [9]; 1000 nM
  normalised viability: 106%
BT-474 [10]
  drug sensitivity score: 0.538
CAL-120 [11]
  drug sensitivity score: 3.6
CAL-51 [12]
  drug sensitivity score: 0
CAL-85-1 [13]
  drug sensitivity score: 1.63
DU-4475
  drug sensitivity score: 1.18
HCC1599 [14]
  drug sensitivity score: 0
HDQ-P1 [15]
  drug sensitivity score: 5.82
Hs578T [16]
  drug sensitivity score: 2.49
MDA-MB-231 [17]
  drug sensitivity score: 0
SK-BR-3 [18]
  drug sensitivity score: 0
